Data reported in EP0918774B9, “ANDROGEN RECEPTOR MODULATOR COMPOUNDS AND METHODS” (LIGAND PHARMACEUTICALS INCORPORATED, priority 1996, dated 1997).

Columns and labels:
PR = biological target: T1, PR (Homo sapiens, UniProt P06401); assay: Co-transfection assay, PR agonist mode; assay type: cell-based; design: expressed in transfected cells; host or cells: CV-1 cells
T1 sequence (P06401 1-933): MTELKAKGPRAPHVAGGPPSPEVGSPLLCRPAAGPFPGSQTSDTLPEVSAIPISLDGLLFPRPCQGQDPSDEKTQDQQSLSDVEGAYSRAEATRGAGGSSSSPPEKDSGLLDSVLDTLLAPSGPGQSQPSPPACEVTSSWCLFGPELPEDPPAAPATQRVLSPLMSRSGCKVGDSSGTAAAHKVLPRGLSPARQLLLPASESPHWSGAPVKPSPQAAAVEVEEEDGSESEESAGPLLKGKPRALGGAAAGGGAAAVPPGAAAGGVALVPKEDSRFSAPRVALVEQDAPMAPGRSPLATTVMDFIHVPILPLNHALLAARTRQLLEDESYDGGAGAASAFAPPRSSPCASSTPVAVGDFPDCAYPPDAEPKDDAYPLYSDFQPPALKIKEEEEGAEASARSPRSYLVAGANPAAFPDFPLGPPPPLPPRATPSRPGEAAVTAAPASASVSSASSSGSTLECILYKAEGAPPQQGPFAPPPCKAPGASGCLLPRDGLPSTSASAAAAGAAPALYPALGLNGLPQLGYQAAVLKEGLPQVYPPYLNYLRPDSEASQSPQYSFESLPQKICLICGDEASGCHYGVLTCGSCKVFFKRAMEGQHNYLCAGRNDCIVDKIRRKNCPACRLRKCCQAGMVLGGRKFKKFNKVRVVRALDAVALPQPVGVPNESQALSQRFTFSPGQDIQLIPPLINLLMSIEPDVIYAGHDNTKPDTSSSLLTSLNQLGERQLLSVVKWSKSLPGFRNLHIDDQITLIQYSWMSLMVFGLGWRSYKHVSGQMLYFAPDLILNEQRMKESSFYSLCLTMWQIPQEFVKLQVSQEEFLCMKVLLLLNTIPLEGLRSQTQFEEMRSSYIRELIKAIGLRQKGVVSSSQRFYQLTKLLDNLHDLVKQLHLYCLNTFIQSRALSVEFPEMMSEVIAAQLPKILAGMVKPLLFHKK
Procedure: (§1) CV-1 cells (African green monkey kidney fibroblasts) were cultured in the presence of Dulbecco's Modified Eagle Medium (DMEM) supplemented with 10% charcoal resinstripped fetal bovine serum then transferred to 96-well microtiter plates one day prior to transfection.
(§2) Three to four replicates were used for each sample.
(§3) After 40 hours, the cells were washed with PBS, lysed with a Triton X-100-based buffer and assayed for LUC and β-Gal activities using a luminometer or spectrophotometer, respectively. For each replicate, the normalized response (NR) was calculated as: LUC response/β-Gal rate where β-Gal rate = β-Gal•1x10^-5/β-Gal incubation time.

GR = biological target: T2, GR (Homo sapiens, UniProt P04150); assay: cell-based
T2 sequence (P04150 1-777): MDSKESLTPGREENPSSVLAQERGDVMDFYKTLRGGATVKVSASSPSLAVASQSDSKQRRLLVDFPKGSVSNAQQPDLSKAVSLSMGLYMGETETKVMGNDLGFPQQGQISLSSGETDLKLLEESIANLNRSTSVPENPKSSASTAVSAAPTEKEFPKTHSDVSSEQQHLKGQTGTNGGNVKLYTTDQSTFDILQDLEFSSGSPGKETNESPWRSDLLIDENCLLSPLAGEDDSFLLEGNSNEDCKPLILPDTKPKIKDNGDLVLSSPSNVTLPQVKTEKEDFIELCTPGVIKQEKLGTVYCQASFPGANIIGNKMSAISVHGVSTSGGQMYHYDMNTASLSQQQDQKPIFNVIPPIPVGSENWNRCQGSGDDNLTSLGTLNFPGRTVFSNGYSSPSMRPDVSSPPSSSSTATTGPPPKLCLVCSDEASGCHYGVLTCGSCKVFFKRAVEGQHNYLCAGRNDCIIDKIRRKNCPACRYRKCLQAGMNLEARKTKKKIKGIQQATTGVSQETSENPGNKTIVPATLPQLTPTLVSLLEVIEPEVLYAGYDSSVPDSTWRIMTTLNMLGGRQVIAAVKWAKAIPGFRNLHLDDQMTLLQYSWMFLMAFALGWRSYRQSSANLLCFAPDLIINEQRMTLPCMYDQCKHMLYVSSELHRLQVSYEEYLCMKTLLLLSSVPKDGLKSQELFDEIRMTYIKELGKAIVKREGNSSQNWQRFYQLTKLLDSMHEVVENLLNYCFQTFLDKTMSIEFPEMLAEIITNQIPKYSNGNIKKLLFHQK
Procedure: as §1, §2, §3

ER = biological target: T3, ER (Homo sapiens, UniProt P03372); assay: Co-transfection assay, ER antagonist mode; assay type: cell-based
T3 construct: expressed in transfected cells; host or cells: CV-1 cells
Procedure: as §1, §2, §3

MR = biological target: T4, MR (Homo sapiens, UniProt P08235); assay: Co-transfection assay, MR antagonist mode; assay type: cell-based
T4 construct: expressed in transfected cells; host or cells: CV-1 cells
T4 sequence (P08235 1-984): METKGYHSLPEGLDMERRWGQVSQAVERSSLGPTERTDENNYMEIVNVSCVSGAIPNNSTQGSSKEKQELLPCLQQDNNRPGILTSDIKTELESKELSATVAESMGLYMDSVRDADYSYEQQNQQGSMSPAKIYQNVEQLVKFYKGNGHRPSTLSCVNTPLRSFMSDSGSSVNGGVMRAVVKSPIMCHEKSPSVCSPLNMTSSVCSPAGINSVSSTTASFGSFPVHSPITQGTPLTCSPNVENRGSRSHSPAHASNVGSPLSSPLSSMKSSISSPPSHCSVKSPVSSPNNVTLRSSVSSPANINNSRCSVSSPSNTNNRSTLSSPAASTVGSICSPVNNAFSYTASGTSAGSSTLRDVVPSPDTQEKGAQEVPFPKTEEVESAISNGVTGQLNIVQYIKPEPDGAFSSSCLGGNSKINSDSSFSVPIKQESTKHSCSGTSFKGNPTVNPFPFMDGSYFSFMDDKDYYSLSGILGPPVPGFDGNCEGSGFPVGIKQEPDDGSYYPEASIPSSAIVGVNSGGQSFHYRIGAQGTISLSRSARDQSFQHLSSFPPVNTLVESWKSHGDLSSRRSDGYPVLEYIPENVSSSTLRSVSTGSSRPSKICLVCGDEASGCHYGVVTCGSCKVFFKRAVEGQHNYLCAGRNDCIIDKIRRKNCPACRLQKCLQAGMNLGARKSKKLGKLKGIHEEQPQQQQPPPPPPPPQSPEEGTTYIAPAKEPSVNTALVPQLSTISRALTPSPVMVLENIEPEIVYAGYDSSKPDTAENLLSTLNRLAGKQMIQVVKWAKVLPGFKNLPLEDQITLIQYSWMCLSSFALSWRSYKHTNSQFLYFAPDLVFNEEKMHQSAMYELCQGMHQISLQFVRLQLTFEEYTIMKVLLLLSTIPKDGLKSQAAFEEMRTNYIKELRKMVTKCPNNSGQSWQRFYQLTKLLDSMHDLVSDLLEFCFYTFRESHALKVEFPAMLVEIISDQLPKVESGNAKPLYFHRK
Procedure: as §1, §2, §3

T3 sequence (P03372 whole entry): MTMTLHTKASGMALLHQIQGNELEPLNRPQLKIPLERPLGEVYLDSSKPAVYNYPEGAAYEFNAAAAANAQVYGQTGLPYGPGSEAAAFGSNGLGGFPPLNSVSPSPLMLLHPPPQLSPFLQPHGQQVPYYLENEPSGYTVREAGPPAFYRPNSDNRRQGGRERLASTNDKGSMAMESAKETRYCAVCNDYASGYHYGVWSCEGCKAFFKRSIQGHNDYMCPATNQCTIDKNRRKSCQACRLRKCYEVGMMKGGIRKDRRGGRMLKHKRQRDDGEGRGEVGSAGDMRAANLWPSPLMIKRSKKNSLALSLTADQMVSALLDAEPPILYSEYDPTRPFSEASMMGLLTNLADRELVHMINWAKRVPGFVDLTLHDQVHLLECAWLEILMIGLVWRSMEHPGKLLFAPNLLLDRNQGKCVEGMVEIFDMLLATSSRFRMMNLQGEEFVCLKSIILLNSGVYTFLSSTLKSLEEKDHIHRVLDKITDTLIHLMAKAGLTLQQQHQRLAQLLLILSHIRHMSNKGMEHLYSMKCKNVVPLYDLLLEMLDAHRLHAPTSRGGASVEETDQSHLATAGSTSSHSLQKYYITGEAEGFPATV

CC12CCCN1c1cc3[nH]c(=O)c(F)c(C(F)(F)F)c3cc1CC2 (racemic) [Compound 102, (R/S)-3-Fluoro-6,7,7a,11-tetrahydro-7a-methyl-4-trifluoromethyl-2-pyridono[5,6-g]pyrrolidino[1,2-a]quinoline]
> 10 µM: EC50 (PR) | IC50 (GR) | IC50 (ER) | IC50 (MR)

CC12CCCN1c1cc3nc(O)cc(C(F)(F)F)c3cc1CC2 (racemic) [Compound 101, (R/S)-6,7,7a,11-Tetrahydro-7a-methyl-4-trifluoromethyl-2-pyridono[5,6-g]pyrrolidino[1,2-a]quinoline]
> 10 µM: EC50 (PR) | IC50 (GR) | IC50 (ER) | IC50 (MR)
